Publication PMC10221074, “Functional Profiling of the A-Family of Venom Peptides from the Wolf Spider Lycosa shansia” (Toxins, 2023)

Key:
[1] = test system: G. mellonella larvae; experiment: Insecticidal activity by injection into larvae; type: in vivo, Galleria mellonella; settings: ethanol injected as positive control, after 5 days
Procedure: Insecticidal activity was determined using fourth and fifth instar G. mellonella larvae (L4/L5) obtained from Fauna Topics Zoobedarf Zucht und Handels GmbH (Marbach am Neckar, Germany). Because spider venom is injected via chelicerae, we opted for an injection-based assay to reflect the natural process of envenomation as described earlier. The peptides were dissolved in a 1:1 mixture of DMSO and water to a final concentration of 10 mmol/L. We injected 50 ng of each peptide into the pseudopodium using Omnican-F, 0.30 × 12 mm/G 30 × 1/2”, a 1 mL syringe adjusted to a WPI manual microsyringe injector setup. Injections with water, DMSO/water (1:1) and ethanol (90%) were used as controls, alongside untreated specimens. Insecticidal activity screenings were performed in cohorts of 10 larvae with 3 replicates (30 specimens per treatment or control). […] Survival was monitored every 24 h for 5 days. Mortality was calculated based on the ratio of dead to injected specimens.

[2] = test system: Escherichia coli BL21(DE3); experiment: Antibacterial growth assay (OD600); settings: for Bacterial growth relative to medium, E. coli, replicate 1 / Bacterial growth relative to medium, E. coli, replicate 2 / Bacterial growth relative to medium, E. coli, replicate 3: OD600, medium = 100, MH II broth, 37 °C, peptide 200 µM mixed 50 µL + 50 µL with bacteria, Figure 7: 48 h; for Bacterial growth relative to medium, E. coli, replicate 1: replicate column 1; for Bacterial growth relative to medium, E. coli, replicate 2: replicate column 2; for Bacterial growth relative to medium, E. coli, replicate 3: replicate column 3
Procedure: (§1) Cryo-conserved cultures of selected bacterial strains (Table 4) were transferred to Tryptic Soy Agar (TSA) plates (Carl Roth) with a sterile inoculation loop, sealed with Parafilm (BEMIS, Neenah, WI, USA), and incubated for 1–2 days at 37 °C depending on growth. Single colonies were picked and transferred into 2–3 mL of the Mueller–Hinton II (MH II) broth (BD, Heidelberg, Germany). The bacteria were cultivated overnight, subcultured on fresh medium and grown for 3–4 h before testing at 37 °C, with shaking at 180 rpm. We measured the optical density at 600 nm (OD600) of 1 mL of the bacterial suspensions in polystyrene cuvettes (SARSTED, Nümbrecht, Germany) using an Ultrospec 10 spectrophotometer (Biochrome, Cambridge, UK). We then diluted them with the MH II medium to the preferred OD600 (Table 2). The peptides were dissolved in DMSO to generate 10 mmol/L stocks and diluted with the MH II medium to 200 µM before the assay. We used 10 µg/mL (~40 µg/mL for S. epidermidis) gentamicin and colistin (Sigma-Aldrich, Taufkirchen, Germany), DMSO and the medium only as controls. The bacteria were transferred to 96-multiwell plates with a final volume of 100 µL per well (50 µL bacterial suspension, and 50 µL test peptide). The OD600 was measured at 0, 24 and 48 h using a BioTek Eon microplate reader followed by analysis with Gen5 v2.09.

[3] = test system: A/Hessen/1/2003 (H3N2); type: cell-based, influenza virus
[4] = test system: A/Hamburg/05/2009 (H1N1); type: cell-based, influenza virus
[5] = test system: Listeria monocytogenes DSM 20600; experiment: Antibacterial growth assay (OD600); settings: for Antibacterial activity (in words): L. monocytogenes DSM 20600, growth after 48 h; for Bacterial growth relative to medium, L. monocytogenes, replicate 1 / Bacterial growth relative to medium, L. monocytogenes, replicate 2 / Bacterial growth relative to medium, L. monocytogenes, replicate 3: OD600, medium = 100, MH II broth, 37 °C, peptide 200 µM mixed 50 µL + 50 µL with bacteria, Figure 7: 48 h; for Bacterial growth relative to medium, L. monocytogenes, replicate 1: replicate column 1; for Bacterial growth relative to medium, L. monocytogenes, replicate 2: replicate column 2; for Bacterial growth relative to medium, L. monocytogenes, replicate 3: replicate column 3
[6] = test system: Micrococcus luteus DSM 20030; experiment: Antibacterial growth assay (OD600); settings: for Bacterial growth relative to medium, M. luteus, replicate 1 / Bacterial growth relative to medium, M. luteus, replicate 2 / Bacterial growth relative to medium, M. luteus, replicate 3: OD600, medium = 100, MH II broth, 37 °C, peptide 200 µM mixed 50 µL + 50 µL with bacteria, Figure 7: 48 h; for Bacterial growth relative to medium, M. luteus, replicate 1: replicate column 1; for Bacterial growth relative to medium, M. luteus, replicate 2: replicate column 2; for Bacterial growth relative to medium, M. luteus, replicate 3: replicate column 3
[7] = test system: Staphylococcus epidermidis DSM 28319; experiment: Antibacterial growth assay (OD600); settings: for Bacterial growth relative to medium, S. epidermidis, replicate 1 / Bacterial growth relative to medium, S. epidermidis, replicate 2 / Bacterial growth relative to medium, S. epidermidis, replicate 3: OD600, medium = 100, MH II broth, 37 °C, peptide 200 µM mixed 50 µL + 50 µL with bacteria, Figure 7: 48 h; for Bacterial growth relative to medium, S. epidermidis, replicate 1: replicate column 1; for Bacterial growth relative to medium, S. epidermidis, replicate 2: replicate column 2; for Bacterial growth relative to medium, S. epidermidis, replicate 3: replicate column 3
Procedure: as §1

[8] = test system: panel of seven bacterial strains; experiment: Antibacterial growth assay (OD600), statements on the whole panel; type: cell-based; settings: growth after 48 h
[9] = test system: Pseudomonas aeruginosa DSM 1117; experiment: Antibacterial growth assay (OD600); settings: for Bacterial growth relative to medium, P. aeruginosa (1117), replicate 1 / Bacterial growth relative to medium, P. aeruginosa (1117), replicate 2 / Bacterial growth relative to medium, P. aeruginosa (1117), replicate 3: OD600, medium = 100, MH II broth, 37 °C, peptide 200 µM mixed 50 µL + 50 µL with bacteria, Figure 7: 48 h; for Bacterial growth relative to medium, P. aeruginosa (1117), replicate 1: replicate column 1; for Bacterial growth relative to medium, P. aeruginosa (1117), replicate 2: replicate column 2; for Bacterial growth relative to medium, P. aeruginosa (1117), replicate 3: replicate column 3; for Antibacterial activity (in words): P. aeruginosa DSM 1117, growth after 48 h
Procedure: as §1

[10] = test system: Pseudomonas aeruginosa DSM 50071; experiment: Antibacterial growth assay (OD600); settings: OD600, medium = 100, MH II broth, 37 °C, peptide 200 µM mixed 50 µL + 50 µL with bacteria, Figure 7: 48 h; for Bacterial growth relative to medium, P. aeruginosa (50071), replicate 1: replicate column 1; for Bacterial growth relative to medium, P. aeruginosa (50071), replicate 2: replicate column 2; for Bacterial growth relative to medium, P. aeruginosa (50071), replicate 3: replicate column 3
Procedure: as §1

[11] = test system: B/Malaysia/2506/2004 (B-Mal); type: cell-based, influenza virus
[12] = test system: Staphylococcus aureus DSM 2569; experiment: Antibacterial growth assay (OD600); settings: for Bacterial growth relative to medium, S. aureus, replicate 1 / Bacterial growth relative to medium, S. aureus, replicate 2 / Bacterial growth relative to medium, S. aureus, replicate 3: OD600, medium = 100, MH II broth, 37 °C, peptide 200 µM mixed 50 µL + 50 µL with bacteria, Figure 7: 48 h; for Bacterial growth relative to medium, S. aureus, replicate 1: replicate column 1; for Bacterial growth relative to medium, S. aureus, replicate 2: replicate column 2; for Bacterial growth relative to medium, S. aureus, replicate 3: replicate column 3
Procedure: as §1

Molecule	Bacterial growth relative to medium, E. coli, replicate 1 [2]	Bacterial growth relative to medium, E. coli, replicate 2 [2]	Bacterial growth relative to medium, E. coli, replicate 3 [2]	Viability of infected cells relative to aprotinin, Replicate 1 [3]	Viability of infected cells relative to aprotinin, Replicate 2 [3]	Viability of infected cells relative to aprotinin, Replicate 3 [3]	Viability of infected cells relative to aprotinin, Replicate 1 [4]	Viability of infected cells relative to aprotinin, Replicate 2 [4]	Viability of infected cells relative to aprotinin, Replicate 3 [4]	Antibacterial activity (in words) [5]	Bacterial growth relative to medium, L. monocytogenes, replicate 1 [5]	Bacterial growth relative to medium, L. monocytogenes, replicate 2 [5]	Bacterial growth relative to medium, L. monocytogenes, replicate 3 [5]	Bacterial growth relative to medium, M. luteus, replicate 1 [6]	Bacterial growth relative to medium, M. luteus, replicate 2 [6]	Bacterial growth relative to medium, M. luteus, replicate 3 [6]	Bacterial growth relative to medium, S. epidermidis, replicate 1 [7]	Bacterial growth relative to medium, S. epidermidis, replicate 2 [7]	Bacterial growth relative to medium, S. epidermidis, replicate 3 [7]	Antibacterial activity over the panel (in words) [8]	further results
CCO [EtOH, ethanol, reference compound]	–	–	–	–	–	–	–	–	–	–	–	–	–	–	–	–	–	–	–	–	Mortality [1]: up to 50%
SLLGLLDVVKNKVGQIGLL [LS-AMP-A3]	114.847	118.887	89.3889	0.1081	0.01008	0.02318	0.0465	0.03476	0.04494	less effective	59.9369	117.418	68.2929	106.28	132.545	67.7188	125.081	166.552	95.4096	limited activity	Bacterial growth relative to medium, P. aeruginosa (1117), replicate 1 [9]: 63.3724; Bacterial growth relative to medium, P. aeruginosa (1117), replicate 2 [9]: 74.5214; Bacterial growth relative to medium, P. aeruginosa (1117), replicate 3 [9]: 66.198; Antibacterial activity (in words) [9]: less effective; Bacterial growth relative to medium, P. aeruginosa (50071), replicate 1 [10]: 100.315; Bacterial growth relative to medium, P. aeruginosa (50071), replicate 2 [10]: 112.866; Bacterial growth relative to medium, P. aeruginosa (50071), replicate 3 [10]: 88.8092; Viability of infected cells relative to aprotinin, Replicate 1 [11]: 0.05676; Viability of infected cells relative to aprotinin, Replicate 2 [11]: 0.05168; Viability of infected cells relative to aprotinin, Replicate 3 [11]: 0.08362; Bacterial growth relative to medium, S. aureus, replicate 1 [12]: 77.3106; Bacterial growth relative to medium, S. aureus, replicate 2 [12]: 83.4859; Bacterial growth relative to medium, S. aureus, replicate 3 [12]: 97.1568
SLLGLLDVVKNTVGQTG [LS-AMP-A9]	70.1329	70.7996	35.5653	0.1782	0.2232	0.05605	0.04771	0.03968	0.02362	able to decrease the growth	56.5719	67.4623	66.1408	52.4959	91.4416	32.7594	52.3672	52.2824	65.3172	inhibited the growth of most of the bacteria except two	Antibacterial activity (in words) ([2]; E. coli BL21(DE3), growth after 48 h): able to decrease the growth; Antibacterial activity (in words) ([6]; M. luteus DSM 20030, growth after 48 h): able to decrease the growth; Antibacterial activity (in words) ([7]; S. epidermidis DSM 28319, growth after 48 h): able to decrease the growth; Bacterial growth relative to medium, P. aeruginosa (1117), replicate 1 [9]: 56.3665; Bacterial growth relative to medium, P. aeruginosa (1117), replicate 2 [9]: 70.6926; Bacterial growth relative to medium, P. aeruginosa (1117), replicate 3 [9]: 77.8728; Bacterial growth relative to medium, P. aeruginosa (50071), replicate 1 [10]: 97.5053; Bacterial growth relative to medium, P. aeruginosa (50071), replicate 2 [10]: 110.589; Bacterial growth relative to medium, P. aeruginosa (50071), replicate 3 [10]: 87.613; Viability of infected cells relative to aprotinin, Replicate 1 [11]: 0.09007; Viability of infected cells relative to aprotinin, Replicate 2 [11]: 0.06966; Viability of infected cells relative to aprotinin, Replicate 3 [11]: 0.05846; Bacterial growth relative to medium, S. aureus, replicate 1 [12]: 57.4133; Bacterial growth relative to medium, S. aureus, replicate 2 [12]: 67.8221; Bacterial growth relative to medium, S. aureus, replicate 3 [12]: 95.0991; Antibacterial activity (in words) ([12]; S. aureus DSM 2569, growth after 48 h): able to decrease the growth
SLFGLLDLVKNKVGQTGLL [LS-AMP-A2]	128.192	150.174	124.918	0.05065	0.0432	0.03436	0.06714	0.03978	0.06798	less effective	66.982	116.711	86.9442	118.679	181.194	65.5667	112.577	143.959	90.9149	limited activity	Viability of infected cells relative to aprotinin, Replicate 4 ([4]; […], replicate 4 (additional internal control)): 0.02665; Viability of infected cells relative to aprotinin, Replicate 5 ([4]; […], replicate 5 (additional internal control)): 0.03333; Bacterial growth relative to medium, P. aeruginosa (1117), replicate 1 [9]: 64.5445; Bacterial growth relative to medium, P. aeruginosa (1117), replicate 2 [9]: 72.5374; Bacterial growth relative to medium, P. aeruginosa (1117), replicate 3 [9]: 62.225; Antibacterial activity (in words) [9]: less effective; Bacterial growth relative to medium, P. aeruginosa (50071), replicate 1 [10]: 100.368; Bacterial growth relative to medium, P. aeruginosa (50071), replicate 2 [10]: 113.753; Bacterial growth relative to medium, P. aeruginosa (50071), replicate 3 [10]: 87.799; Viability of infected cells relative to aprotinin, Replicate 1 [11]: 0.03127; Viability of infected cells relative to aprotinin, Replicate 2 [11]: 0.04494; Viability of infected cells relative to aprotinin, Replicate 3 [11]: 0.06464; Bacterial growth relative to medium, S. aureus, replicate 1 [12]: 88.0937; Bacterial growth relative to medium, S. aureus, replicate 2 [12]: 87.9986; Bacterial growth relative to medium, S. aureus, replicate 3 [12]: 104.003
